pIC50: −log10 of the molar value. Where two headings read alike, the source gives them in different places.
Key:
[1] = target: T1, MMP8 (human neutrophil collagenase) catalytic domain (Homo sapiens, UniProt P22894); experiment: Inhibition of MMP8 catalytic domain, fluorescent DNP-substrate degradation; assay type: biochemical
T1 construct: by means of the catalytic domain of MMP8
Description: Said test provides for the determination via fluorescence of the inhibition of the degradation of a fluorescent substrate (DNP-Pro-Leu-Gly-Leu-Trp-Ala-D-Arg-[…], M1855 Bachem) by means of the catalytic domain of MMP8.
(§1) Reagents: 1) DNP-substrate=DNP-Pro-Leu-Gly-Leu-Trp-Ala-D-Arg-NH2 (M1855 Bachem), M. W. 977,l g/mol, concentration 25 μM in DMSO, 2) measurement buffer=50 mM TRIS/100 mM NaCl/10 mM CaCl2.2H2O, adjusted at pH 7 6 with hydrochloric acid. 3) Enzyme=catalytic domain of MMP8 ([…]), concentration 0.055 mg/ml in TRIS buffer. Substrate and enzyme are maintained at 0° C. with ice bath.
(§2) Total volume=1 ml of solution kept under stirring in a cuvette
(§3) It is measured the fluoresence at 346 nm both of the control solution (without inhibitor) and of the solution containing the inhibitor. The inhibition of the catalytic activity of MMP8 results in the decrease of the DNP-substrate bond's lysis, with related decrease of the fluorescence of the solution.
(§4) The percentage of inhibition is expressed by the following formula:
(§5) % Inhibition=100−(rel. unit/timewith inhibitor/rel. unit/timecontrol×100)
(§6) By repeating the experiment at different concentrations of inhibitor it is possible to determine the IC50 value.

[2] = target: T2, MMP-9 (gelentinase 92 kD) (Homo sapiens, UniProt P14780); experiment: Inhibition of MMP-9 catalytic domain (same test as MMP8); assay type: biochemical
T2 construct: MMP-9 IC50; other: catalytic domain
T2 sequence (P14780 with tags, fused parts or gaps DEL217-390 limits assumed): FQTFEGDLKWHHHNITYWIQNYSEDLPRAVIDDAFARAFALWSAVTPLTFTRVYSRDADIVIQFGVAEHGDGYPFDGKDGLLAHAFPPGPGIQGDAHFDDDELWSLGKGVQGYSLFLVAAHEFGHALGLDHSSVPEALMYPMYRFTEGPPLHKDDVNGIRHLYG
Description: The compounds of the present invention have been tested in a pharmacological “in vitro” test of inhibition of MMP8 (human neutrophil collagenase). Said test provides for the determination via fluorescence of the inhibition of the degradation of a fluorescent substrate (DNP-Pro-Leu-Gly-Leu-Trp-Ala-D-Arg-[…], M1855 Bachem) by means of the catalytic domain of MMP8.
as §1, §2, §3, §4, §5, §6
The same test has been performed also on the MMP-9 (gelentinase 92 kD) and the selectivity between the two enzymes has been evaluated. Values of MMP-9/MMP-8 rate well below 1 are expected to give rise to less side toxic effects, since MMP-8 seems more involved in the regulation of vital functions that MMP-9 does.

[3] = test system: human fibrosarcoma HT1080 cells; experiment: Test of chemoinvasion through Type IV collagen coated Transwell chambers; assay type: cell-based; conditions: HT-1080, concentration 10^-7 M
Description: The compounds of the present invention have also shown activity in a test of chemoinvasion. In the test of chemoinvasion the Costar Transwell chambers for cell culture (diameter: 6.5 mm: pore size: 8 μm) are coated with 100 μl of Type IV collagen (diluted solution 50 μg/ml, then evaporation overnight). With the same procedure the chambers are coated with a second layer of Type IV collagen (100 μl of solution at concentration 50 μg/ml). Before use, the chambers are rinsed twice with sterile water and incubated for about 1 hour at 37° C. in a serum-free medium (DMEM).
The human fibrosarcoma HT1080 cells are harvested by trypsin-EDTA treatment, washed with DMEM-10% FCS and incubated for at least 30 minutes at 37° C. in the same medium. The cells are then washed with serum-free DMEM and resuspended in serum-free DMEM added with 0.1% BSA (fraction V), counted and diluted to obtain a final density of 3×10^5 cell/ml.
Preincubated inserts are aspirated to remove the serum-free medium. […]
Incubated filters are then washed with PBS, the cells are fixed 15 min. in 4% paraformaldehyde, permeabilized in methanol (10 minutes, −20° C.) and stained with May-Grunwald-Giemsa. Cells which adhere to the top of the filters are removed with a cotton swab, filters are detached from the bottom of the chambers and analyzed with microscope to determine the number of cells on the lower side of the filters. […]

T1 sequence (P22894 100-262 limits assumed): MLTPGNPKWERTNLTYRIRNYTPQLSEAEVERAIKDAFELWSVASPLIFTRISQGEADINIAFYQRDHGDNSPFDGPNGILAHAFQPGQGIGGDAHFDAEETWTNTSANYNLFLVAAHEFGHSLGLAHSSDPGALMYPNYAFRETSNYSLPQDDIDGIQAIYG

SMILES: CCCCCCCCC1(CC(=O)OCC)C(=O)NC(=O)NC1=O [Example 1, 5-octyl-5-(ethoxycarbonylmethyl)barbituric acid]
- pIC50 [1]: 6.97
- pIC50 [2]: 7.71

SMILES: CNC(=O)[C@H](Cc1ccccc1)NC(=O)[C@H](CC(C)C)[C@H](CSc1ccccc1)C(=O)NO [GI 129471, reference compound]
- inhibition at 0.1 µM [3]: 77%

SMILES: CNC(=O)[C@H](Cc1ccccc1)NC(=O)[C@H](CC(C)C)[C@H](CSc1cccs1)C(=O)NO [batimastat, reference compound]
- pIC50 ([2]; catalytic domain, read-out: MMP-9 IC50): 7.60

SMILES: CCCCCCCCC1(CC(=O)N(CCNC(C)=O)Cc2ccccc2)C(=O)NC(=O)NC1=O [Example 6, 5-octyl-5-(carboxymethyl)barbituric acid N′-acetyl-N-benzyl-N-ethylenediamide]
- pIC50 [1]: 7.17
- pIC50 [2]: 7.85
- inhibition at 0.1 µM [3]: 73%

SMILES: CCCCCCCCC1(CC(=O)NCCNC(C)=O)C(=O)NC(=O)NC1=O [Example 5, 5-octyl-5-(carboxymethyl)barbituric acid N′-acetyl N-ethylenediamide]
- pIC50 [1]: 7.00
- pIC50 [2]: 7.70

Reference: patent US6335332B1, “Barbituric acid derivatives with antimetastatic and antitumor activity” (Roche Diagnostics GmbH, priority 1997, dated 2002)
